The text below walks through data of patent publication US12404243B2, “Inhibitors of the Wnt/beta-catenin pathway” (The Regents of the University of California, priority 2018, dated 2025).

Entries after “also recorded” stand apart in the source; their conditions may differ.

Experiment [1] has as its system Wnt/β-catenin-mediated transcription. The experiment is described as follows: TCF-luciferase activity assay in 293T/Top/β-cat* cells. The experiment is classed as cell-based. The settings on record: summary of FIGS. 5A, B (293T/Top cells + LiCl) and 6A-C (293T/Top/β-cat* cells). On the procedure: (§1) 293T cells were maintained in DMEM medium containing 10% FBS and antibiotics (penicillin and streptomycin) at 37° C. in 5% CO2. Cells were stably infected with lentiviruses expressing the TopFlash reporter (293T/Top cells). The β-catenin mutant (β-cat*, the constitutively active mutant) construct was prepared using the retroviral expression vector by standard PCR. For viral transduction, retrovirus was obtained by co-trasfection of pQCXIP-β-cat* with packaging plasmids into 293T cells following the manufacturer's instructions. 293T/Top stable cells were seeded in 10 cm dish and incubated overnight. The next day cells were treated with retroviral particles. After 12 hours, the medium was replaced with fresh medium. 2 days post virus infection, the cells were selected with puromycin for 5 days to generate the 293T/Top/β-cat* stable cell line.
293 T/Top/β-cat* cells were plated at 40%-50% confluences in 12-well plate for 8 hours and then treated with Wnt inhibitors overnight. The luciferase activity of total cell lysates was measured using Luciferase Assay System (Promega). The related TCF-luciferase activity was normalized against the protein concentration of each cell lysate sample.

The test system is the same in experiment [2]. The experiment is described as follows: Topflash reporter activity induced by LiCl in 293T/Top cells. The experiment is classed as cell-based. The settings on record: 20 mM LiCl, increasing concentration of JC001 (FIG. 5A). The method, then: as §1
The test system of the next experiment is SW480 tumor xenografts. The experiment is described as follows: Mouse xenografts of SW480 cells. Format: in vivo, nude mice. The settings on record: for actual tumor weights at the end of treatment: day 12 to day 20 (FIG. 8C). The method, then:
5×10^5 of SW480 cells were injected subcutaneously into the flank area of 6-8-week-old nude mice. Tumor volume was measured by using an electronic caliper and calculated with the formula length×width^2×0.5, every 2 days. 12 days after inoculation, tumor bearing mice were administered Wnt inhibitors (dissolved in 10% DMSO+20% Cremophor EL+70% normal saline) via intraperitoneal injection for 5 days per week for 10 days at 10 mg/kg. Animal body weights were measured before drug treatments and at the end of the experiments. At the end of the experiments, animals were euthanized with carbon dioxide, followed by cervical dislocation. The tumors were dissected and weighed on the digital balance. We housed mice in pathogen-free facilities under 12-h light and 12-h dark cycle. The animal protocol and experimental procedures were approved by the Division of Laboratory Animal Medicine of UCLA and were in accordance with the US National Institute of Health guidelines.

Where [3] appears, read: SW480 xenografts, 10 mg/kg, day 12 to day 20 (FIG. 8A).
[4] abbreviates: SW480 xenografts, 10 mg/kg, day 12 to day 20 (FIG. 8B).

As for `CN(C)CCC(=O)N1C/C(=C\c2ccccc2)C(=O)/C(=C/c2ccccc2)C1` [JC001, 3,5-Di((E)-benzylidene)-1-(3-(dimethylamino)propanoyl)piperidin-4-one], the Wnt/β-catenin-mediated transcription result in experiment [1] was “significantly inhibited”. Moreover, the “Topflash reporter activities induced by LiCl” value in experiment [2] is on record as “inhibit Topflash reporter activities”. Further, the tumor volumes entry in the experiment with SW480 tumor xenografts (setting [3]) is “significantly reduced tumor volumes”. The “actual tumor sizes at the end of treatment” value in the experiment with SW480 tumor xenografts (setting [4]) is “reduced the size of tumors recovered”. For the same compound, the “actual tumor weights at the end of treatment” value with SW480 tumor xenografts (SW480 xenografts, 10 mg/kg) is given as “significantly reduced the weight of tumors recovered”.
`CCN(CC)CCC(=O)N1C/C(=C\c2ccc(F)c(F)c2)C(=O)/C(=C/c2ccc(F)c(F)c2)C1` [JC049, 1-(3-(Diethylamino)propanoyl)-3,5-bis((E)-3,4-difluorobenzylidene)piperidin-4-one]: the Wnt/β-catenin-mediated transcription result in experiment [1] was “significantly inhibited”. The tumor volumes entry in the experiment on SW480 tumor xenografts (SW480 xenografts, 10 mg/kg, day 12 to 22 (FIG. 7A)) was “significantly reduced tumor volumes”; in the experiment with SW480 tumor xenografts (SW480 xenografts, 10 mg/kg, day 12 to 22 (FIG. 16C)), “significantly reduced tumor volumes”; in the experiment on SW480 tumor xenografts (setting [3]) it was “significantly reduced tumor volumes”. For the same compound, the “tumor sizes at the end of treatment” value in the experiment with SW480 tumor xenografts (SW480 xenografts, 10 mg/kg, day 12 to 22 (FIG. 7B)) is “significantly reduced the size of tumors recovered”; in the experiment with SW480 tumor xenografts (SW480 xenografts, 10 mg/kg, day 12 to day 21 (FIG. 9B)) it was “significantly reduced the size of the tumors recovered”. Also, the “tumor weights at the end of treatment” value in the experiment with SW480 tumor xenografts (SW480 xenografts, 10 mg/kg, day 12 to 22 (FIG. 7C)) is given as “significantly reduced the weight of tumors recovered”; with SW480 tumor xenografts (SW480 xenografts, 10 mg/kg, day 12 to 22 (FIG. 16B)) it was “significantly reduced the weight of tumors recovered”; with SW480 tumor xenografts (SW480 xenografts, 10 mg/kg, day 12 to day 21 (FIG. 9C)), “significantly reduce the weight of tumors recovered”. The “actual tumor sizes at the end of treatment” value with SW480 tumor xenografts (SW480 xenografts, 10 mg/kg, day 12 to 22 (FIG. 16A)) is given as “reduced the size of tumors recovered”; with SW480 tumor xenografts (setting [4]) it was “reduced the size of tumors recovered”. In the experiment with SW480 tumor xenografts (SW480 xenografts, 10 mg/kg), the “actual tumor weights at the end of treatment” value is “significantly reduced the weight of tumors recovered”. In addition, the tumor volume entry in the experiment on SW480 tumor xenografts (SW480 xenografts, 10 mg/kg, day 12 to day 21 (FIG. 9A)) is on record as “significantly reduce tumor volume”. Moreover, the tumor growth result with SW480 tumor xenografts (mouse xenograft studies of human colon cancer, summary of FIGS. 7A-D, 8A-C, 9A-C) is reported as “significantly inhibited the tumor growth; also recorded: showed the strongest inhibition”.
